Assay results as given in PMC9166766 (Experimental & Molecular Medicine, 2022).

Tests used:
[1] = system: Jurkat T cells (T-cell activation gene mRNA); assay: Real-time quantitative PCR of activated Jurkat T cells; format: cell-based; conditions: PMA and ionomycin, Supplementary Fig. 5a, b
Excerpt: We collected Jurkat T cells with QIAzol Lysis Reagent (Qiagen) to extract total RNA. We reverse transcribed cDNAs from isolated RNA using AMV Reverse Transcriptase and random hexamers. We performed real-time quantitative PCR for each cDNA using TB Green® Premix Ex Taq™ (TaKaRa, Kusatsu, Japan) on a CFX Connect Real-time PCR Detection System (Bio-Rad, Hercules, CA, USA) and normalized the expression to that of 18 S rRNA or GAPDH.

[2] = system: Jurkat T cells (PMA and ionomycin-induced gene expression); assay: mRNA sequencing of activated Jurkat T cells; format: cell-based, human
Procedure: We then extracted RNA from these cells. Construction of the cDNA library and next-generation sequencing was performed at LAS (Gimpo, Korea). We sequenced all samples on an Illumina NextSeq 500 system with 75 paired-end reads. For the RNA sequencing analysis, reads for each sample were aligned to the human genome (GRCh37/hg19 genome assembly) using STAR 2.4.0.1[25] with default settings. We used HOMER tools to quantify and normalize the defined genes in RefSeq transcripts. FPKM normalized genes were hierarchically clustered using Cluster3.0[26]. We visualized refined data with Java Treeview (http://jtreeview.sourceforge.net). We conducted gene ontology analysis of each cluster using the DAVID web tool (https://david.ncifcrf.gov). Finally, we visualized the expression levels of target genes using the Integrative Genomics Viewer (http://software.broadinstitute.org/software/igv). The raw data were submitted to the NCBI Gene Expression Omnibus under accession number GSE185561.
Fig. 3 The CABIN1 peptide inhibits T-cell activation. a Heatmap of altered genes affected by FK506 treatment or CABIN1 peptide expression upon T-cell activation. b Gene Ontology analysis of cluster III. c mRNA expression levels of genes included in cluster III. d qRT-PCR data of genes in c. The experiment was independently repeated at least three times, and the data are presented as the mean ± standard deviation. Statistical differences were determined using two-tailed Student’s t-test. *p < 0.05, **p < 0.01, ***p < 0.001, NC negative control.

C=CC[C@@H]1/C=C(\C)C[C@H](C)C[C@H](OC)[C@H]2O[C@@](O)(C(=O)C(=O)N3CCCC[C@H]3C(=O)O[C@H](/C(C)=C/[C@@H]3CC[C@@H](O)[C@H](OC)C3)[C@H](C)[C@@H](O)CC1=O)[C@H](C)C[C@@H]2OC [FK506, reference compound]
NINJ1 and ZP4 expression upon T-cell activation [1]: repressed
CD27 and CD70 expression ([2]; Jurkat, PMA and ionomycin 8 h): repressed
RNA levels of T-cell activation markers (IL2, IL3, NFATC1, CCL4, CCL20, CXCL8) ([2]; Jurkat, PMA and ionomycin 8 h): reduced the RNA levels
TM4SF1 expression ([2]; P+I 8 h, NC 0, NC_P+I 3.268): 0.439 FPKM
CD200 expression ([2]; P+I 8 h, NC 0, NC_P+I 3.759): 0 FPKM
ZP4 expression ([2]; P+I 8 h, NC 0, NC_P+I 6.38): 0.462 FPKM
CCL3L1 expression ([2]; P+I 8 h, NC 0, NC_P+I 6.448): 0 FPKM
CCL3L3 expression ([2]; P+I 8 h, NC 0, NC_P+I 6.524): 0 FPKM
CCL1 expression ([2]; P+I 8 h, NC 0, NC_P+I 9.86): 0 FPKM
NR4A2 expression ([2]; P+I 8 h, NC 0, NC_P+I 10.173): 0.04 FPKM
CCL4L2 expression ([2]; P+I 8 h, NC 0, NC_P+I 12.758): 0.087 FPKM
CCL4L1 expression ([2]; P+I 8 h, NC 0, NC_P+I 13.27): 0.087 FPKM
CSF2 expression ([2]; P+I 8 h, NC 0, NC_P+I 23.497): 0 FPKM
XCL1 expression ([2]; P+I 8 h, NC 0, NC_P+I 49.113): 0 FPKM
CCL3 expression ([2]; P+I 8 h, NC 0, NC_P+I 52.239): 0 FPKM
CCL20 expression ([2]; P+I 8 h, NC 0, NC_P+I 59.393): 0 FPKM
IL3 expression ([2]; P+I 8 h, NC 0, NC_P+I 229.054): 0.062 FPKM
CCL4 expression ([2]; P+I 8 h, NC 0, NC_P+I 247.287): 0 FPKM
IL2 expression ([2]; P+I 8 h, NC 0, NC_P+I 397.807): 0.287 FPKM
C3 expression ([2]; P+I 8 h, NC 0.006, NC_P+I 3.907): 0.489 FPKM
TNS3 expression ([2]; P+I 8 h, NC 0.008, NC_P+I 13.196): 0.678 FPKM
PLS3 expression ([2]; P+I 8 h, NC 0.019, NC_P+I 4.717): 0.052 FPKM
CREB5 expression ([2]; P+I 8 h, NC 0.031, NC_P+I 4.533): 0.577 FPKM
IRF4 expression ([2]; P+I 8 h, NC 0.034, NC_P+I 8.439): 0.423 FPKM
CXCL8 expression ([2]; P+I 8 h, NC 0.037, NC_P+I 26.755): 0.937 FPKM
SLAMF1 expression ([2]; P+I 8 h, NC 0.042, NC_P+I 5.663): 0.217 FPKM
TNFSF14 expression ([2]; P+I 8 h, NC 0.045, NC_P+I 69.958): 1.023 FPKM
IL21R-AS1 expression ([2]; P+I 8 h, NC 0.048, NC_P+I 23.616): 1.927 FPKM
XCL2 expression ([2]; P+I 8 h, NC 0.056, NC_P+I 70.747): 0 FPKM
LIF expression ([2]; P+I 8 h, NC 0.063, NC_P+I 3.697): 0.143 FPKM
SHC4 expression ([2]; P+I 8 h, NC 0.069, NC_P+I 4.391): 0.663 FPKM
RGS16 expression ([2]; P+I 8 h, NC 0.077, NC_P+I 29.102): 1.172 FPKM
IL21R expression ([2]; P+I 8 h, NC 0.1, NC_P+I 34.712): 2.244 FPKM
CRTAM expression ([2]; P+I 8 h, NC 0.104, NC_P+I 100.175): 3.325 FPKM
ZNF704 expression ([2]; P+I 8 h, NC 0.107, NC_P+I 4.985): 0.014 FPKM
NTRK1 expression ([2]; P+I 8 h, NC 0.167, NC_P+I 7.941): 0.836 FPKM
PHEX expression ([2]; P+I 8 h, NC 0.188, NC_P+I 17.377): 0.213 FPKM
SORBS1 expression ([2]; P+I 8 h, NC 0.196, NC_P+I 5.08): 0.4 FPKM
TIAM2 expression ([2]; P+I 8 h, NC 0.255, NC_P+I 4.095): 0.27 FPKM
CRIM1 expression ([2]; P+I 8 h, NC 0.268, NC_P+I 3.029): 0.305 FPKM
SERPINB2 expression ([2]; P+I 8 h, NC 0.28, NC_P+I 85.882): 2.905 FPKM
CCND2 expression ([2]; P+I 8 h, NC 0.321, NC_P+I 6.436): 0.558 FPKM
CXCR3 expression ([2]; P+I 8 h, NC 0.604, NC_P+I 14.322): 0.503 FPKM
ISM1 expression ([2]; P+I 8 h, NC 0.798, NC_P+I 56.893): 0.726 FPKM
C10orf54 expression ([2]; P+I 8 h, NC 0.84, NC_P+I 7.506): 0.382 FPKM
CSF1 expression ([2]; P+I 8 h, NC 0.848, NC_P+I 13.43): 1.706 FPKM
SLC35E4 expression ([2]; P+I 8 h, NC 0.887, NC_P+I 9.069): 0.952 FPKM
ZNF827 expression ([2]; P+I 8 h, NC 0.975, NC_P+I 3.401): 1.521 FPKM
CD70 expression ([2]; P+I 8 h, NC 1.101, NC_P+I 61.146): 3.005 FPKM
PAM expression ([2]; P+I 8 h, NC 1.154, NC_P+I 5.577): 1.483 FPKM
FOXO1 expression ([2]; P+I 8 h, NC 1.167, NC_P+I 8.247): 1.77 FPKM
IRF8 expression ([2]; P+I 8 h, NC 1.168, NC_P+I 14.813): 1.19 FPKM
SCHIP1 expression ([2]; P+I 8 h, NC 1.25, NC_P+I 3.933): 1.535 FPKM
FOSL2 expression ([2]; P+I 8 h, NC 1.294, NC_P+I 7.508): 2.204 FPKM
TNFSF9 expression ([2]; P+I 8 h, NC 1.393, NC_P+I 7.107): 2.568 FPKM
IQCJ-SCHIP1 expression ([2]; P+I 8 h, NC 1.402, NC_P+I 4.253): 1.657 FPKM
STAT5A expression ([2]; P+I 8 h, NC 1.417, NC_P+I 9.105): 3.347 FPKM
TDRD9 expression ([2]; P+I 8 h, NC 1.428, NC_P+I 25.902): 1.245 FPKM
